According to patent publication US20120157401A1, “METHODS FOR TREATING NEUROFIBROMATOSIS” (PTC Therapeutics, Inc., priority 2009, published 2012):
pEC50: −log10 of the molar value.

What follows are molecules tested on hypoxia-inducible endogenous VEGF expression (assay: Hypoxia-inducible endogenous VEGF expression ELISA in HeLa cells, dose-response EC50 (Table 3)). Conditions: HeLa cells, hypoxic conditions (1% O2), 24-48 hours, VEGF in conditioned media; read-out: ELISA EC50.
Type: cell-based, human
Method in brief: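 HeLa cells kept 24-48 h under hypoxia (1% O2, 5% CO2, nitrogen balance) with or without compound, e.g. seven concentrations; secreted VEGF in conditioned medium quantified by ELISA against a standard curve. Parallel Cell Titer Glo viability under identical conditions excludes cytotoxicity.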

Row | Compound | pEC50
1 | COc1ccc(C2c3[nH]c4ccc(Cl)cc4c3CCN2C(=O)Oc2ccc(F)cc2)cc1 (centres unmarked) [Compound 410] | > 8.10
2 | O=C(Oc1ccc(F)cc1)N1CCc2c([nH]c3ccc(Cl)cc23)C1c1ccc(OCCCn2ccnc2)cc1 (centres unmarked) [Compound 994] | > 8.10
3 | O=C(Oc1ccc(Cl)cc1)N1CCc2c([nH]c3ccc(Cl)cc23)C1c1ccc(S(=O)(=O)N2CCOCC2)cc1 (centres unmarked) [Compound 450] | 7.40 to 8.10
4 | O=C(Oc1ccc(F)cc1)N1CCc2c([nH]c3ccc(Br)cc23)C1c1ccc(C(F)(F)F)cc1 (centres unmarked) [Compound 426] | > 8.10

Same assay, conditions: Homo sapiens, HeLa, read-out: ELISA EC50 μM

Row | Compound | EC50 [µM]
5 | COc1ccc(C2c3[nH]c4ccc(Cl)cc4c3CCN2C(=O)Oc2ccc(Cl)cc2)cc1OCCCN1CCOCC1 (centres unmarked) [Compound 1096] | 0.2 to 1
6 | O=C(Oc1ccc(Cl)cc1)N1CCc2c([nH]c3ccc(Cl)cc23)[C@@H]1c1ccc(OCCC(O)CN2CCOCC2)cc1 (some centres unmarked) [Compound 1279] | < 0.008
7 | O=C(Oc1ccc(Cl)cc1)N1CCc2c([nH]c3ccc(Cl)cc23)[C@@H]1c1ccc(OCCCNC2CCCC2)cc1 [Compound 1235] | 0.008 to 0.04
8 | COc1ccc(C2c3[nH]c4ccc(Cl)cc4c3CCN2C(=O)Oc2ccc(Cl)cc2)cc1OCCCCN1CCOCC1 (centres unmarked) [Compound 1097] | 0.04 to 0.2
9 | CN1CCN(CCCOc2ccc(C3c4[nH]c5ccc(Cl)cc5c4CCN3C(=O)Oc3ccccc3)cc2)CC1 (centres unmarked) [Compound 1076] | 0.04 to 0.2
10 | O=C(Oc1ccc(Cl)cc1)N1CCc2c([nH]c3ccc(Cl)cc23)C1c1ccc(OCC(O)CN2CCN(CCO)CC2)cc1 (centres unmarked) [Compound 960] | 0.008 to 0.04
11 | O=C(Oc1ccc(F)cc1)N1CCc2c([nH]c3ccc(Cl)cc23)C1c1ccc(OCCCCN2CCOCC2)cc1 (centres unmarked) [Compound 738] | < 0.008
12 | O=C(Oc1ccc(F)cc1)N1CCc2c([nH]c3ccc(Cl)cc23)C1c1ccc(OCCCCCCN2CCCC2)cc1 (centres unmarked) [Compound 773] | < 0.008
13 | COc1cc(C2c3[nH]c4ccc(Cl)cc4c3CCN2C(=O)Oc2ccc(Cl)cc2)ccc1OCCN1CCOCC1 (centres unmarked) [Compound 1092] | 0.008 to 0.04
14 | COc1ccc(OC(=O)N2CCc3c([nH]c4ccc(Cl)cc34)C2c2ccc(OCC(=O)NCCN3CCOCC3)cc2)cc1 (centres unmarked) [Compound 1026] | 0.008 to 0.04
15 | CCN1CCN(C(=O)COc2ccc(C3c4[nH]c5ccc(Cl)cc5c4CCN3C(=O)Oc3ccc(F)cc3)cc2)CC1 (centres unmarked) [Compound 1024] | 0.04 to 0.2
16 | O=C(Oc1ccc(Cl)cc1)N1CCc2c([nH]c3ccc(Cl)cc23)C1c1ccc(OCC(O)CN2CCOCC2)cc1 (centres unmarked) [Compound 904] | < 0.008
17 | CC(=O)N1CCN(CCCOc2ccc(C3c4[nH]c5ccc(Cl)cc5c4CCN3C(=O)Oc3ccc(Cl)cc3)cc2)CC1 (centres unmarked) [Compound 903] | < 0.008
18 | O=C(Oc1ccc(Cl)cc1)N1CCc2c([nH]c3ccc(Cl)cc23)C1c1ccc(OCCCCCCN2CCCCC2)cc1 (centres unmarked) [Compound 787] | < 0.008
19 | CC(C)NCCCCCCOc1ccc(C2c3[nH]c4ccc(Cl)cc4c3CCN2C(=O)Oc2ccc(Cl)cc2)cc1 (centres unmarked) [Compound 784] | < 0.008

Same assay, conditions: Homo sapiens; HeLa cells, hypoxic conditions (1% O2), 24-48 hours, VEGF in conditioned media; read-out: ELISA EC50

Row | Compound | pEC50
20 | O=C(Oc1ccc(F)cc1)N1CCc2c([nH]c3ccc(Cl)cc23)C1c1ccc(OCCCn2ccnn2)cc1 (centres unmarked) [Compound 995] | > 8.10
21 | O=C(Oc1ccccc1)N1CCc2c([nH]c3ccc(Cl)cc23)C1c1ccc(OCCCn2nccn2)cc1 (centres unmarked) [Compound 1078] | 7.40 to 8.10
22 | O=C(Oc1ccc(Cl)cc1)N1CCc2c([nH]c3ccc(Cl)cc23)[C@H]1c1ccc(OCCCCl)cc1 [Compound 1126] | 6.00 to 6.70
23 | COC(=O)c1ccc(C2c3[nH]c4ccc(Br)cc4c3CCN2C(=O)Oc2ccccc2Cl)cc1 (centres unmarked) [Compound 593] | 7.40 to 8.10
24 | O=C(Oc1ccccc1)N1CCc2c([nH]c3ccc(Cl)cc23)C1c1ccccc1 (centres unmarked) [Compound 121] | 7.40 to 8.10
25 | O=C(Oc1ccc(F)cc1)N1CCc2c([nH]c3ccc(Cl)cc23)C1c1ccc(OCCn2ccnn2)cc1 (centres unmarked) [Compound 833] | 6.70 to 7.40
26 | O=C(Oc1ccc(F)cc1)N1CCc2c([nH]c3ccc(Cl)cc23)C1c1cccc(OCCCn2ccnn2)c1 (centres unmarked) [Compound 1125] | 6.00 to 6.70
27 | Cc1ccc(OC(=O)N2CCc3c([nH]c4ccc(Cl)cc34)[C@@H]2c2ccc(OCCC(O)Cn3ccnn3)cc2)cc1 (some centres unmarked) [Compound 1289] | > 8.10
28 | COc1ccc(C2c3[nH]c4ccc(Cl)cc4c3CCN2C(=O)Oc2ccc(Cl)cc2)cc1OCCn1cncn1 (centres unmarked) [Compound 1089] | 6.00 to 6.70
29 | CC(=O)NCC(O)CCOc1ccc([C@H]2c3[nH]c4ccc(Cl)cc4c3CCN2C(=O)Oc2ccc(Cl)cc2)cc1 (some centres unmarked) [Compound 1276] | > 8.10
30 | CC1(COc2ccc([C@H]3c4[nH]c5ccc(Cl)cc5c4CCN3C(=O)Oc3ccc(Cl)cc3)cc2)COC(C)(C)OC1 [Compound 1229] | > 8.10
31 | COc1ccc(OC(=O)N2CCc3c([nH]c4ccc(Cl)cc34)C2c2ccc(OCCCCl)cc2)cc1 (centres unmarked) [Compound 944] | 7.40 to 8.10
32 | O=C(Oc1ccc(Cl)cc1)N1CCc2c([nH]c3ccc(Cl)cc23)C1c1ccc(OCCCCCl)cc1 (centres unmarked) [Compound 660] | > 8.10
33 | Cc1ccc(OC(=O)N2CCc3c([nH]c4ccc(Cl)cc34)C2c2ccc(OCCCn3cncn3)cc2)cc1 (centres unmarked) [Compound 882] | > 8.10
34 | COC(=O)c1ccc(C2c3[nH]c4ccc(Cl)cc4c3CCN2C(=O)Oc2ccc(F)cc2)cc1 (centres unmarked) [Compound 395] | > 8.10
35 | O=C(Oc1ccc(F)cc1)N1CCc2c([nH]c3ccc(Cl)cc23)C1c1ccc(OCCNc2nccs2)cc1 (centres unmarked) [#837] | > 8.10
36 | O=C(Oc1ccc(F)cc1)N1CCc2c([nH]c3ccc(Cl)cc23)C1c1ccc(OCC(O)Cn2ccnc2)cc1 (centres unmarked) [Compound 922] | > 8.10
37 | O=C(Oc1ccc(F)cc1)N1CCc2c([nH]c3ccc(Br)cc23)C1c1ccc(C(F)(F)F)cc1 (centres unmarked) [Compound 397] | > 8.10
38 | O=C(Oc1ccc(F)cc1)N1CCc2c([nH]c3ccc(Cl)cc23)C1c1ccc(OCC(O)Cn2ccnn2)cc1 (centres unmarked) [Compound 941] | > 8.10

Row | Compound | pEC50
39 | O=C(Oc1ccc(F)cc1)N1CCc2c([nH]c3ccc(Cl)cc23)C1c1ccc(OCCCO)cc1 (centres unmarked) [Compound 1110] | > 8.10
40 | CC1(C)OC[C@H](CCOc2ccc([C@H]3c4[nH]c5ccc(Cl)cc5c4CCN3C(=O)Oc3ccc(Cl)cc3)cc2)O1 [Compound 1203] | > 8.10
41 | COc1ccc(C2c3[nH]c4ccc(Cl)cc4c3CCN2C(=O)O[C@H]2C[C@@H](C)CC[C@@H]2C(C)C)cc1 (some centres unmarked) [Compound 192] | 6.00 to 6.70
42 | COCCOCCOc1ccc(C2c3[nH]c4ccc(Cl)cc4c3CCN2C(=O)Oc2ccccc2Cl)cc1 (centres unmarked) [Compound 674] | 7.40 to 8.10
43 | COCC(=O)NCC(O)CCOc1ccc([C@H]2c3[nH]c4ccc(Cl)cc4c3CCN2C(=O)Oc2ccc(Cl)cc2)cc1 (some centres unmarked) [Compound 1278] | > 8.10
44 | O=C(Oc1ccccc1)N1CCc2c([nH]c3ccc(Cl)cc23)[C@@H]1c1ccc(OCC[C@H](O)CO)cc1 [Compound 1299] | > 8.10
45 | Cc1ccc(OC(=O)N2CCc3c([nH]c4ccc(Cl)cc34)C2c2ccc(OCC[C@H](O)CO)cc2)cc1 (some centres unmarked) [Compound 1180] | > 8.10
46 | Cc1ccc(C2c3[nH]c4ccc(Br)cc4c3CCN2C(=O)Oc2ccc(Cl)cc2)cc1 (centres unmarked) [Compound 353] | > 8.10
47 | O=C(Oc1ccccc1Cl)N1CCc2c([nH]c3ccc(Cl)cc23)C1c1ccc(OCCCCl)cc1 (centres unmarked) [Compound 713] | 7.40 to 8.10
48 | CS(=O)(=O)Nc1ccc(C2c3[nH]c4ccc(Cl)cc4c3CCN2C(=O)Oc2ccc(Cl)cc2)cc1 (centres unmarked) [Compound 974] | 6.70 to 7.40
49 | O=C(Oc1ccc(Cl)cc1)N1CCc2c([nH]c3ccc(Cl)cc23)C1c1ccc(OCCn2ccnn2)cc1 (centres unmarked) [Compound 839] | 7.40 to 8.10
50 | Cc1ccc(OC(=O)N2CCc3c([nH]c4ccc(Cl)cc34)[C@@H]2c2ccc(OCCC(O)Cn3nccn3)cc2)cc1 (some centres unmarked) [Compound 1290] | > 8.10
51 | O=C(Oc1ccc(Cl)cc1)N1CCc2c([nH]c3ccc(Cl)cc23)[C@@H]1c1ccc(OC[C@@H](O)CO)cc1 [Compound 1224] | > 8.10
52 | O=C(Oc1ccc(F)cc1)N1CCc2c([nH]c3ccc(Cl)cc23)C1c1ccc(OCCCCCCn2cncn2)cc1 (centres unmarked) [Compound 781] | > 8.10
53 | O=C(Oc1ccccc1)N1CCc2c([nH]c3ccc(Br)cc23)C1c1ccccc1 (centres unmarked) [Compound 76] | 7.40 to 8.10
54 | O=C(Oc1ccc(Cl)cc1)N1CCc2c([nH]c3ccc(Cl)cc23)C1c1ccc(OCCCCCCn2ccnc2)cc1 (centres unmarked) [Compound 790] | > 8.10
55 | COCCOc1ccc(C2c3[nH]c4ccc(Cl)cc4c3CCN2C(=O)Oc2ccc(F)cc2)cc1 (centres unmarked) [Compound 388] | > 8.10
56 | O=C(Oc1ccc(Cl)cc1)N1CCc2c([nH]c3ccc(Cl)cc23)C1c1ccc(Cl)cc1 (centres unmarked) [Compound 351] | 7.40 to 8.10

Same assay, conditions: Homo sapiens; HeLa cells, hypoxic conditions (1% O2), VEGF ELISA of conditioned media; read-out: ELISA EC50

Row | Compound | pEC50
57 | C#CCCOc1ccc([C@H]2c3[nH]c4ccc(Cl)cc4c3CCN2C(=O)Oc2ccc(Cl)cc2)cc1 [Compound 1614] | > 8.10
58 | CS(=O)(=O)NCC(O)CCOc1ccc([C@H]2c3[nH]c4ccc(Cl)cc4c3CCN2C(=O)Oc2ccc(Cl)cc2)cc1 (some centres unmarked) [Compound 1667] | > 8.10
59 | Nc1ccn(CCOc2ccc(C3c4[nH]c5ccc(Cl)cc5c4CCN3C(=O)Oc3ccc(F)cc3)cc2)n1 (centres unmarked) [Compound 1413] | > 8.10
60 | O=C(Oc1ccc(Cl)cc1)N1CCc2c([nH]c3ccc(Cl)cc23)[C@@H]1c1ccc(OCCc2cn(C3OC(CO)C(O)C(O)C3O)nn2)cc1 (some centres unmarked) [Compound 1676] | < 6.00
61 | CCOC(=O)NC[C@@H](O)COc1ccc([C@H]2c3[nH]c4ccc(Cl)cc4c3CCN2C(=O)Oc2ccc(F)cc2)cc1 [Compound 1664] | > 8.10
62 | CCC(=O)NCC(O)COc1ccc(C2c3[nH]c4ccc(Cl)cc4c3CCN2C(=O)Oc2ccc(Cl)cc2)cc1 (centres unmarked) [Compound 1558] | 7.40 to 8.10
63 | N#CCOc1ccc(C2c3[nH]c4ccc(Cl)cc4c3CCN2C(=O)Oc2ccccc2Cl)cc1 (centres unmarked) [Compound 1546] | 6.70 to 7.40
64 | Cc1nccnc1Oc1ccc([C@H]2c3[nH]c4ccc(Cl)cc4c3CCN2C(=O)Oc2ccc(Cl)cc2)cc1 [Compound 1659] | > 8.10
65 | O=C(Oc1ccc(F)cc1)N1CCc2c([nH]c3ccc(Cl)cc23)C1c1ccc(OC2CCOCC2)cc1 (centres unmarked) [Compound 1577] | > 8.10
